# Laboratory results: patent US20170233413A1, “SUBSTITUTED ANNULATED PYRIMIDINES AND USE THEREOF” (Bayer Pharma Aktiengesellschaft, priority 2014, published 2017)
# Columns and labels:
# [1] = molecular target: T1, human phosphodiesterase 5 (PDE 5) (Homo sapiens, UniProt O76074); assay: Inhibition of human phosphodiesterase 5 (PDE 5); assay type: biochemical; settings: PDE 5 preparation from human platelets; in some cases means of individual determinations
# T1 construct: PDE 5 preparations are obtained from human platelets by disruption; from tissue; host or cells: human platelets
# Summary of the method: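 IC50 comes from percent inhibition over a 1:3 series with final levels of 4 to 0.0018 μM. Reaction: tritiated cGMP tracer (0.025 μCi) with platelet-derived, Mono Q-purified enzyme, 1 h at room temperature in Tris pH 7.5, under 70% turnover. Read-out by scintillation proximity beads.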
# [2] = molecular target: T2, recombinant guanylate cyclase reporter cell line (Rattus norvegicus, UniProt P19686+P20595); assay: Effect on a recombinant guanylate cyclase reporter cell line; assay type: cell-based; settings: MEC = minimum effective concentration; in some cases means of individual determinations
# T2 construct: expressed in transfected cells
# T2 sequence (P19686 1-690): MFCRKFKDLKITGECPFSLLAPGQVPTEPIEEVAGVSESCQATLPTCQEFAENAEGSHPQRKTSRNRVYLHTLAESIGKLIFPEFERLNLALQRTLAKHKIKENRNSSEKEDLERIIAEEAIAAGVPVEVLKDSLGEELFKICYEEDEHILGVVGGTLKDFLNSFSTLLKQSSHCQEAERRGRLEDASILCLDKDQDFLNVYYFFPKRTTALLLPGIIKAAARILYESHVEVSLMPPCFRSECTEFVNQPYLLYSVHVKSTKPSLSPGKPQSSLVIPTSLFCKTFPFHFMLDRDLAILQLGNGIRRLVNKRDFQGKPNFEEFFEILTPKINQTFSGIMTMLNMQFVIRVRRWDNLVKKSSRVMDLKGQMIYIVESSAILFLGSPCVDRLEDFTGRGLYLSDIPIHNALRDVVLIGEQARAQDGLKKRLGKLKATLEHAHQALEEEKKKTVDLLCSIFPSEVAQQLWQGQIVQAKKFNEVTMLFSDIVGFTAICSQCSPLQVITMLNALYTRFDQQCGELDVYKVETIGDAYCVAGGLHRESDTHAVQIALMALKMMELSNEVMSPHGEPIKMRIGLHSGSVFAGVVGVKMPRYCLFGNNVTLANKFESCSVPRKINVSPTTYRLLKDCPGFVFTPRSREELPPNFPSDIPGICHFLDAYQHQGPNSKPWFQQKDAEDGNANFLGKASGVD
# T2 sequence (P20595 1-619): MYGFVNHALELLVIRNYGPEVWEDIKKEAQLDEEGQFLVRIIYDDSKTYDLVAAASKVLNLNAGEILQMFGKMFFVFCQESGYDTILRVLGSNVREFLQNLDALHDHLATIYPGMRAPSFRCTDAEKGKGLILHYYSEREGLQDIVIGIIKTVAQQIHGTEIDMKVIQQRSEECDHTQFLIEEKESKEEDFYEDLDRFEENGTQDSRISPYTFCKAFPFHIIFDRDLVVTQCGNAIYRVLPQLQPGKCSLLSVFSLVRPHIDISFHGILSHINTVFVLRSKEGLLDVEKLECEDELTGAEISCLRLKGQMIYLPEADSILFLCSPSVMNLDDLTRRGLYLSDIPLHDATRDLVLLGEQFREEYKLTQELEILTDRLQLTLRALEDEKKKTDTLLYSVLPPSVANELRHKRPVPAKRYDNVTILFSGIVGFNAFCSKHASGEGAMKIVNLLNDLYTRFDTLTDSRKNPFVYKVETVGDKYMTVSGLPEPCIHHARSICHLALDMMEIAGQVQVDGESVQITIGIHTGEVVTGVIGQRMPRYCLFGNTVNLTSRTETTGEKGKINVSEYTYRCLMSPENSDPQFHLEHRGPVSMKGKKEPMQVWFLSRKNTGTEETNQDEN
# Summary of the method: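 Values are reported as MEC, sometimes averaged over individual determinations. The test system is a reporter cell line expressing recombinant rat guanylate cyclase.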
IC50 [1] [nM],MEC [2] [µM],SMILES
9.3,0.3,"CC1(C)C(=O)Nc2nc(-c3nn(Cc4ccccc4F)c4ncccc34)nc(C(=O)NC3CCOC3=O)c21 (racemic) [Example 78, rac-2-[1-(2-fluorobenzyl)-1H-pyrazolo[3,4-b]pyridin-3-yl]-5,5-dimethyl-6-oxo-N-(2-oxotetrahydrofuran-3-yl)-6,7-dihydro-5H-pyrrolo[2,3-d]pyrimidine-4-carboxamide]"
24,0.3,"CC1(C)C(=O)Nc2nc(-c3nn(Cc4ccccc4F)c4ncccc34)nc(C(=O)Nc3cc[nH]n3)c21 [Example 87, 2-[1-(2-fluorobenzyl)-1H-pyrazolo[3,4-b]pyridin-3-yl]-5,5-dimethyl-6-oxo-N-(1H-pyrazol-3-yl)-6,7-dihydro-5H-pyrrolo[2,3-d]pyrimidine-4-carboxamide]"
1300,10,CN(CCO)C(=O)c1nc(-c2nn(Cc3ncccc3F)c3ncc(F)cc23)nc2c1C(C)(C)C(=O)N2 [Example 35]
19,0.1,CC1(C)C(=O)Nc2nc(-c3nn(Cc4ccccc4F)c4ncc(F)cc34)nc(C(=O)NCC(F)(F)F)c21 [Example 50]
4.3,0.3,"CC1(C)C(=O)Nc2nc(-c3nn(Cc4ccccc4F)c4ncccc34)nc(C(=O)Nc3cn[nH]c3)c21 [Example 100, 2-[1-(2-fluorobenzyl)-1H-pyrazolo[3,4-b]pyridin-3-yl]-5,5-dimethyl-6-oxo-N-(1H-pyrazol-4-yl)-6,7-dihydro-5H-pyrrolo[2,3-d]pyrimidine-4-carboxamide]"
16,0.3,"CC1(C)C(=O)Nc2nc(-c3nn(Cc4ccccc4F)c4ncccc34)nc(C(=O)Nc3nnc[nH]3)c21 [Example 94, 2-[1-(2-fluorobenzyl)-1H-pyrazolo[3,4-b]pyridin-3-yl]-5,5-dimethyl-6-oxo-N-(4H-1,2,4-triazol-3-yl)-6,7-dihydro-5H-pyrrolo[2,3-d]pyrimidine-4-carboxamide]"
170,0.3,"Cc1nnc(NC(=O)c2nc(-c3nn(Cc4ccccc4F)c4ncccc34)nc3c2C(C)(C)C(=O)N3)o1 [Example 71, 2-[1-(2-fluorobenzyl)-1H-pyrazolo[3,4-b]pyridin-3-yl]-5,5-dimethyl-N-(5-methyl-1,3,4-oxadiazol-2-yl)-6-oxo-6,7-dihydro-5H-pyrrolo[2,3-d]pyrimidine-4-carboxamide]"
110,0.01,CN(CC1CC1)C(=O)c1nc(-c2nn(Cc3ccccc3F)c3ncc(F)cc23)nc2c1C(C)(C)C(=O)N2 [Example 53]
2.6,0.3,"Cn1nccc1NC(=O)c1nc(-c2nn(Cc3ccccc3F)c3ncccc23)nc2c1C(C)(C)C(=O)N2 [Example 67, 2-[1-(2-fluorobenzyl)-1H-pyrazolo[3,4-b]pyridin-3-yl]-5,5-dimethyl-N-(1-methyl-1H-pyrazol-5-yl)-6-oxo-6,7-dihydro-5H-pyrrolo[2,3-d]pyrimidine-4-carboxamide]"
9,0.3,"CC1(C)C(=O)Nc2nc(-c3nn(Cc4ccccc4F)c4ncccc34)nc(C(=O)Nc3cccnc3)c21 [Example 89, 2-[1-(2-fluorobenzyl)-1H-pyrazolo[3,4-b]pyridin-3-yl]-5,5-dimethyl-6-oxo-N-(pyridin-3-yl)-6,7-dihydro-5H-pyrrolo[2,3-d]pyrimidine-4-carboxamide]"
150,0.01,CN(C(=O)c1nc(-c2nn(Cc3ccccc3F)c3ncc(F)cc23)nc2c1C(C)(C)C(=O)N2)C1CC1 [Example 52]
73,0.3,"CC1(C)C(=O)Nc2nc(-c3nn(Cc4ccccc4F)c4ncccc34)nc(C(=O)Nc3cncc(F)c3)c21 [Example 107, 2-[1-(2-fluorobenzyl)-1H-pyrazolo[3,4-b]pyridin-3-yl]-N-(5-fluoropyridin-3-yl)-5,5-dimethyl-6-oxo-6,7-dihydro-5H-pyrrolo[2,3-d]pyrimidine-4-carboxamide]"
110,0.3,"Cc1nc2c(cc1F)c(-c1nc3c(c(C(N)=O)n1)C(C)(C(F)(F)F)C(=O)N3)nn2Cc1cccc(F)c1F (single isomer, unassigned; ent-2) [Example 10, ent-2-[1-(2,3-Difluorobenzyl)-5-fluoro-6-methyl-1H-pyrazolo[3,4-b]pyridin-3-yl]-5-methyl-6-oxo-5-(trifluoromethyl)-6,7-dihydro-5H-pyrrolo[2,3-d]pyrimidine-4-carboxamide (enantiomer A)]"
10,0.1,"CCNC(=O)c1nc(-c2nn(Cc3ccccc3F)c3ncccc23)nc2c1C(C)(C)C(=O)N2 [Example 129, N-ethyl-2-[1-(2-fluorobenzyl)-1H-pyrazolo[3,4-b]pyridin-3-yl]-5,5-dimethyl-6-oxo-6,7-dihydro-5H-pyrrolo[2,3-d]pyrimidine-4-carboxamide]"
12,0.3,CC(C)(O)CNC(=O)c1nc(-c2nn(Cc3ccccc3F)c3ncc(F)cc23)nc2c1C(C)(C)C(=O)N2 [Example 29]
13,0.03,"CC1(C)C(=O)Nc2nc(-c3nn(Cc4ccccc4F)c4ncc(F)cc34)nc(C(N)=O)c21 [Example 2, 2-[5-Fluoro-1-(2-fluorobenzyl)-1H-pyrazolo[3,4-b]pyridin-3-yl]-5,5-dimethyl-6-oxo-6,7-dihydro-5H-pyrrolo[2,3-d]pyrimidine-4-carboxamide]"
1300,6.5,"CC1(C(F)(F)F)C(=O)Nc2nc(-c3nn(Cc4ncccc4F)c4ncc(F)cc34)nc(C(N)=O)c21 (single isomer, unassigned; ent-2) [Example 23, ent-2-{5-Fluoro-1-[(3-fluoropyridin-2-yl)methyl]-1H-pyrazolo[3,4-b]pyridin-3-yl}-5-methyl-6-oxo-5-(trifluoromethyl)-6,7-dihydro-5H-pyrrolo[2,3-d]pyrimidine-4-carboxamide (enantiomer B)]"
10,0.1,CC1(C)C(=O)Nc2nc(-c3nn(Cc4ccccc4F)c4ncc(F)cc34)nc(C(=O)NC3(C#N)CC3)c21 [Example 31]
46,1,"CC1(C)C(=O)Nc2nc(-c3nn(Cc4ccccc4F)c4ncccc34)nc(C(=O)Nc3nccs3)c21 [Example 72, 2-[1-(2-fluorobenzyl)-1H-pyrazolo[3,4-b]pyridin-3-yl]-5,5-dimethyl-6-oxo-N-(1,3-thiazol-2-yl)-6,7-dihydro-5H-pyrrolo[2,3-d]pyrimidine-4-carboxamide]"
13,0.1,"CC(CC1CC1)NC(=O)c1nc(-c2nn(Cc3ccccc3F)c3ncccc23)nc2c1C(C)(C)C(=O)N2 (racemic) [Example 68, rac-N-(1-cyclopropylpropan-2-yl)-2-[1-(2-fluorobenzyl)-1H-pyrazolo[3,4-b]pyridin-3-yl]-5,5-dimethyl-6-oxo-6,7-dihydro-5H-pyrrolo[2,3-d]pyrimidine-4-carboxamide]"
100,0.03,"CC1(C)C(=O)Nc2nc(-c3nn(Cc4ccccc4F)c4cc(Cl)ccc34)nc(C(N)=O)c21 [Example 3, 2-[6-Chloro-1-(2-fluorobenzyl)-1H-indazol-3-yl]-5,5-dimethyl-6-oxo-6,7-dihydro-5H-pyrrolo[2,3-d]pyrimidine-4-carboxamide]"
91,1,"CCC(CC)CNC(=O)c1nc(-c2nn(Cc3ccccc3F)c3ncccc23)nc2c1C(C)(C)C(=O)N2 [Example 59, N-(2-Ethylbutyl)-2-[1-(2-fluorobenzyl)-1H-pyrazolo[3,4-b]pyridin-3-yl]-5,5-dimethyl-6-oxo-6,7-dihydro-5H-pyrrolo[2,3-d]pyrimidine-4-carboxamide]"
